Data from ChEMBL document CHEMBL1156695, “The novel primaquine derivatives of N-alkyl, cycloalkyl or aryl urea: synthesis, cytostatic and antiviral activity evaluations” (Eur J Med Chem, 2008).
Activity calls are given as the source filed them. No cut-off for these calls is given here.

Tests used:
[1] = Cytostatic activity against human WI38 cells after 72 hrs by MTT assay; assay type: cell-based; conditions: WI-38, 72 h
Human betaherpesvirus 5 [2] = assay: Antiviral activity against HCMV AD169 infected in HEL cells assessed as reduction of virus-induced cytopathogenicity after 3 days; assay type: functional, organism-based; conditions: Human betaherpesvirus 5, AD169, HEL, 72 h
Human betaherpesvirus 5 [3] = assay: Antiviral activity against HCMV Davis infected in HEL cells assessed as reduction of virus-induced cytopathogenicity after 3 days; assay type: functional, organism-based; conditions: Human betaherpesvirus 5, Davis, 72 h
[4] = Cytotoxicity against HEL cells assessed as change in cell morphology; assay type: cell-based; conditions: human
[5] = Cytotoxicity against HEL cells assessed as reduction in cell growth; assay type: cell-based; conditions: human
Human alphaherpesvirus 1 = assay: Antiviral activity against HSV1 infected in HEL cells assessed as reduction of virus-induced cytopathogenicity; assay type: functional, organism-based
Human alphaherpesvirus 2 = assay: Antiviral activity against HSV2 infected in HEL cells assessed as reduction of virus-induced cytopathogenicity; assay type: functional, organism-based
[6] = tested on: Vesicular stomatitis virus; assay: Antiviral activity against vesicular stomatitis virus infected in HEL cells assessed as reduction of virus-induced cytopathogenicity; assay type: functional, organism-based
[7] = tested on: Mammalian orthoreovirus 1; assay: Antiviral activity against Reovirus 1 infected in african green monkey Vero cells assessed as reduction of virus-induced cytopathogenicity; assay type: functional, organism-based
Human respirovirus 3 = assay: Antiviral activity against parainfluenza virus 3 infected in african green monkey Vero cells assessed as reduction of virus-induced cytopathogenicity; assay type: functional, organism-based
Sindbis virus = assay: Antiviral activity against Sindbis virus infected in african green monkey Vero cells assessed as reduction of virus-induced cytopathogenicity; assay type: functional, organism-based
Coxsackievirus B4 [8] = assay: Antiviral activity against Coxsackievirus B4 infected in african green monkey Vero cells assessed as reduction of virus-induced cytopathogenicity; assay type: functional, organism-based
Punta Toro virus = assay: Antiviral activity against Punta Toro virus infected in african green monkey Vero cells assessed as reduction of virus-induced cytopathogenicity; assay type: functional, organism-based
[9] = tested on: Vesicular stomatitis virus; assay: Antiviral activity against vesicular stomatitis virus infected in HeLa cells assessed as reduction of virus-induced cytopathogenicity; assay type: functional, organism-based
Coxsackievirus B4 [10] = assay: Antiviral activity against Coxsackievirus B4 infected in HeLa cells assessed as reduction of virus-induced cytopathogenicity; assay type: functional, organism-based
[11] = tested on: Respiratory syncytial virus; assay: Antiviral activity against respiratory syncytial virus infected in HeLa cells assessed as reduction of virus-induced cytopathogenicity; assay type: functional, organism-based
L1210 = assay: Cytostatic activity against mouse L1210 cells after 72 hrs by MTT assay; assay type: functional, cell-based; conditions: L1210, 72 h
CCRF-CEM = assay: Cytostatic activity against human CEM cells after 72 hrs by MTT assay; assay type: functional, cell-based
[12] = Cytostatic activity against human Molt4/C8 cells after 72 hrs by MTT assay; assay type: functional, cell-based; conditions: MOLT-4, 72 h
HeLa = assay: Cytostatic activity against human HeLa cells after 72 hrs by MTT assay; assay type: functional, cell-based
MIA PaCa-2 = assay: Cytostatic activity against human MiaPaCa2 cells after 72 hrs by MTT assay; assay type: functional, cell-based; conditions: MIA PaCa-2, 72 h
SW-620 = assay: Cytostatic activity against human SW620 cells after 72 hrs by MTT assay; assay type: functional, cell-based; conditions: SW-620, 72 h
MCF7 = assay: Cytostatic activity against human MCF7 cells after 72 hrs by MTT assay; assay type: functional, cell-based; conditions: MCF7, 72 h
NCI-H460 = assay: Cytostatic activity against human H460 cells after 72 hrs by MTT assay; assay type: functional, cell-based; conditions: NCI-H460, 72 h

Row | SMILES | IC50 [1] | EC50 (Human betaherpesvirus 5 [2]) | EC50 (Human betaherpesvirus 5 [3]) | MCC [4] | CC50 [5] | Activity (Human alphaherpesvirus 1) | Activity (Human alphaherpesvirus 2) | Activity [6] | Activity [7] | Activity (Human respirovirus 3) | Activity (Sindbis virus) | Activity (Coxsackievirus B4 [8]) | Activity (Punta Toro virus) | Activity [9] | Activity (Coxsackievirus B4 [10]) | Activity [11] | IC50 (L1210) | IC50 (CCRF-CEM) | IC50 [12] | IC50 (HeLa) | also measured
1 | COc1cc(NC(C)CCCNC(=O)NCC2CCCCC2)c2ncccc2c1 (configuration not stated) | > 100 µM | 15.3 µM | 7.6 µM | 100 µM | 74 µM | inactive | inactive | inactive | inactive | inactive | inactive | inactive | inactive | inactive | inactive | inactive | 22 µM | 22 µM | 53 µM | > 100 µM | IC50 (MIA PaCa-2): 60 µM; IC50 (SW-620): 61 µM; IC50 (MCF7): 61 µM; IC50 (NCI-H460): > 100 µM
2 | COc1cc(NC(C)CCCNC(=O)NC(c2ccccc2)c2ccccc2)c2ncccc2c1 (configuration not stated) | > 100 µM | > 100 µM | > 100 µM | > 100 µM | > 100 µM | inactive | inactive | inactive | inactive | inactive | inactive | inactive | inactive | inactive | inactive | inactive | > 500 µM | 142 µM | ≥ 500 µM | 100 µM | IC50 (MIA PaCa-2): 100 µM; IC50 (SW-620): 58 µM; IC50 (MCF7): > 100 µM; IC50 (NCI-H460): > 100 µM
3 | COc1cc(NC(C)CCCNC(=O)NCc2ccccc2)c2ncccc2c1 (configuration not stated) | 35 µM | > 20 µM | 7.6 µM | 100 µM | 66 µM | inactive | inactive | inactive | inactive | inactive | inactive | inactive | inactive | inactive | inactive | inactive | 22 µM | 18 µM | 21 µM | 15 µM | IC50 (MIA PaCa-2): 21 µM; IC50 (SW-620): 9 µM; IC50 (MCF7): 25 µM; IC50 (NCI-H460): 30 µM
4 | COc1cc(NC(C)CCCNC(=O)NCc2ccncc2)c2ncccc2c1 (configuration not stated) | 10 µM | 13.4 µM | 1.2 µM | 100 µM | 72 µM | inactive | inactive | inactive | inactive | inactive | inactive | inactive | inactive | inactive | inactive | inactive | 3 µM | 2.9 µM | 24 µM | 18 µM | IC50 (MIA PaCa-2): 20 µM; IC50 (SW-620): 2 µM; IC50 (MCF7): 30 µM; IC50 (NCI-H460): 48 µM
5 | COc1cc(NC(C)CCCNC(=O)N(C2CCCCC2)C2CCCCC2)c2ncccc2c1 (configuration not stated) | 18 µM | > 0.8 µM | > 0.8 µM | 4 µM | 27 µM | inactive | inactive | inactive | inactive | inactive | inactive | inactive | inactive | inactive | inactive | inactive | 15 µM | 13 µM | 36 µM | 23 µM | IC50 (MIA PaCa-2): 17 µM; IC50 (SW-620): 15 µM; IC50 (MCF7): 9 µM; IC50 (NCI-H460): 21 µM
6 | COc1cc(NC(C)CCCNC(=O)NC2CCCC2)c2ncccc2c1 (configuration not stated) | 29 µM | > 20 µM | 12 µM | 100 µM | 56 µM | inactive | inactive | inactive | inactive | inactive | inactive | inactive | inactive | inactive | inactive | inactive | 41 µM | 41 µM | 44 µM | 21 µM | IC50 (MIA PaCa-2): 19 µM; IC50 (SW-620): 19 µM; IC50 (MCF7): 30 µM; IC50 (NCI-H460): 25 µM
7 | Nc1nc(O)c2ncn(COC(CO)CO)c2n1 [GANCICLOVIR] | – | – | – | > 1580 µM | – | – | – | – | – | – | – | – | – | – | – | – | – | – | – | – | –
8 | COc1cc(NC(C)CCCNC(=O)NC2CCCCC2)c2ncccc2c1 (configuration not stated) | > 100 µM | 53 µM | 10.5 µM | 100 µM | 94 µM | inactive | inactive | inactive | inactive | inactive | inactive | inactive | inactive | inactive | inactive | inactive | 23 µM | 36 µM | 50 µM | > 100 µM | IC50 (MIA PaCa-2): 38 µM; IC50 (SW-620): 49 µM; IC50 (MCF7): 41 µM; IC50 (NCI-H460): 77 µM
9 | COc1cc(NC(C)CCCNC(=O)NCCc2ccccc2)c2ncccc2c1 (configuration not stated) | > 100 µM | 12.6 µM | 2.9 µM | > 100 µM | 56 µM | inactive | inactive | inactive | inactive | inactive | inactive | inactive | inactive | inactive | inactive | inactive | 24 µM | 34 µM | 45 µM | > 100 µM | IC50 (MIA PaCa-2): 30 µM; IC50 (SW-620): 32 µM; IC50 (MCF7): 27 µM; IC50 (NCI-H460): 54 µM
10 | COc1cc(NC(C)CCCNC(=O)n2nnc3ccccc32)c2ncccc2c1 (configuration not stated) [PRIMAQUINE BENZOTRIAZOLIDE] | > 100 µM | > 100 µM | > 30 µM | > 100 µM | 72 µM | inactive | inactive | inactive | inactive | inactive | inactive | inactive | inactive | inactive | inactive | inactive | 125 µM | > 100 µM | 74 µM | 71 µM | IC50 (MIA PaCa-2): 84 µM; IC50 (SW-620): > 100 µM; IC50 (MCF7): > 100 µM; IC50 (NCI-H460): > 100 µM
11 | CCN(CC)C(=O)NCCCC(C)Nc1cc(OC)cc2cccnc12 (configuration not stated) | > 100 µM | 49 µM | 26 µM | > 100 µM | > 100 µM | inactive | inactive | inactive | inactive | inactive | inactive | inactive | inactive | inactive | inactive | inactive | 207 µM | 142 µM | 155 µM | 58 µM | IC50 (MIA PaCa-2): > 100 µM; IC50 (SW-620): > 100 µM; IC50 (MCF7): > 63 µM; IC50 (NCI-H460): > 100 µM
12 | Nc1ccn(C[C@@H](CO)OCP(=O)(O)O)c(=O)n1 [CIDOFOVIR] | – | – | – | > 1270 µM | – | – | – | – | – | – | – | – | – | – | – | – | – | – | – | – | –
